From ChEMBL document CHEMBL3797132, “State of affairs: Design and structure-activity relationships of reversible P2Y12 receptor antagonists” (Bioorg Med Chem Lett, 2016)
One block for each molecule: values may come before it.

Legend:
[1] = biological target: T1, P2Y purinoceptor 12 (Homo sapiens, UniProt Q9H244); experiment: Antagonist activity at P2Y12 receptor (unknown origin) by GTPgammaS binding assay; format: functional
[2] = Clearance in rat; format: ADME, organism-based; conditions: in vivo
[3] = biological target: T1, P2Y purinoceptor 12; experiment: Binding affinity to P2Y12 receptor (unknown origin)
[4] = biological target: T1, P2Y purinoceptor 12; experiment: Antagonist activity at P2Y12 receptor (unknown origin)
[5] = Cmax in beagle dog at 10 mg/kg, po administered via oral gavage by LC/MS analysis; format: ADME, organism-based, Canis lupus familiaris; conditions: in vivo
[6] = Terminal half life in beagle dog at 10 mg/kg, po administered via oral gavage by LC/MS analysis; format: ADME, organism-based, Canis lupus familiaris; conditions: in vivo, read-out: beta t1/2 (converted)
[7] = biological target: T1, P2Y purinoceptor 12; experiment: Displacement of [3H]-2-Mes-ADP from human P2Y12 receptor
[8] = biological target: T1, P2Y purinoceptor 12; experiment: Displacement of [3H]-2-Mes-ADP from human P2Y12 receptor in platelets by scintillation counter
[9] = Oral bioavailability in rat; format: ADME, organism-based; conditions: in vivo

T1 sequence (Q9H244 whole entry): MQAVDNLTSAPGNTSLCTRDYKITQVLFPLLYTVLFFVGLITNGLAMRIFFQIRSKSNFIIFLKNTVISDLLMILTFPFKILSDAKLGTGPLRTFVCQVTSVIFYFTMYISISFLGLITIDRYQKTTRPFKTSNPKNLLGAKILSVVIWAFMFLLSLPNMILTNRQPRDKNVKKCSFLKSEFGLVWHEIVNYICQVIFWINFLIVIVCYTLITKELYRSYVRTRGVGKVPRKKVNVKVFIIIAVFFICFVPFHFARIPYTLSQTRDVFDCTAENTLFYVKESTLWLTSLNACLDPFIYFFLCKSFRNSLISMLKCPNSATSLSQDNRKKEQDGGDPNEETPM

IC50 [4]: 0.00501 µM
SMILES: CCCSc1nc(N[C@@H]2C[C@H]2c2ccc(F)c(F)c2)c2nnn([C@@H]3C[C@H](OCCO)[C@@H](O)[C@H]3O)c2n1 [TICAGRELOR]

Cmax [5]: 14 µM
half-life [6]: 0.2 h
IC50 [7]: 0.029 µM
SMILES: CCOC(=O)N1CCN(C(=O)[C@H](CCC(=O)O)NC(=O)c2cc(OC(C)(C)C(=O)OCC)c3ccc(C)cc3n2)CC1

half-life [6]: 7 h
IC50 [7]: 0.0053 µM
SMILES: CCOC(=O)N1CCN(C(=O)[C@H](CCC(=O)O)NC(=O)c2cc(OC(C)(C)C(=O)O)c3ccc(C)cc3n2)CC1

IC50 [8]: < 0.01 µM
SMILES: CNc1cc2[nH]c(=O)n(-c3ccc(NC(=O)NS(=O)(=O)c4ccc(Cl)s4)cc3)c(=O)c2cc1F [ELINOGREL]

Continued, molecule first:

SMILES: CCc1cnc(-c2cc(C#N)c(N3CC(C(=O)NS(=O)(=O)c4ccc(Cl)s4)C3)nc2C)o1
IC50 [1]: 0.022 µM
clearance [2]: 16 mL/min/kg
IC50 [3]: 0.44 µM

SMILES: CCOC(=O)c1cc(C#N)c(N2CCN(C(=O)NS(=O)(=O)c3ccc(Cl)s3)CC2)nc1C
IC50 [1]: 0.07 µM
clearance [2]: 16 mL/min/kg
IC50 [3]: 0.04 µM
bioavailability [9]: 15%

SMILES: CCOC(=O)c1cc(C#N)c(N2CC(C(=O)NS(=O)(=O)c3ccc(Cl)s3)C2)nc1C
clearance [2]: 3 mL/min/kg
IC50 [3]: 0.06 µM
